TGI data for twelve molecules are collected here from PubChem BioAssay (NCI).

Among the test systems are BT-549 breast; T-47D breast; HCT-15 colon; SF-268 CNS; MCF7 breast; NCI-H522 lung; RPMI-8226 leukemia; RXF 393 renal; PC-3 prostate; COLO 205 colon; SK-MEL-5 melanoma.
Holding throughout (test): NCI-60 cell line screen, 48 h

The structures appear in SMILES notation.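 Cultured in 96-well plates, cells were exposed to test compound for 48 hours across five concentrations. At the TGI there is no net growth.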 Where a SMILES comes first, the peptide text is derived from it. Side-chain parts run from the residue outwards. The star is where a group is joined. Cbz = O=C(OCc1ccccc1)*; Boc = CC(C)(C)OC(=O)*

Turning to `CS(=O)(=O)OC1CCN(C2(c3cccc(O)c3)CCCCC2)CC1`, the TGI in the test on BT-549 breast, in the test with T-47D breast, in the test with HCT-15 colon, in the test with SF-268 CNS, with MCF7 breast and in the test on NCI-H522 lung was above 100 µM in each case. Moreover, the TGI with RPMI-8226 leukemia is 49 µM; in the test with RXF 393 renal, above 100 µM; in the test with PC-3 prostate it was above 100 µM; with COLO 205 colon, above 100 µM; in the test with SK-MEL-5 melanoma, above 100 µM.

Consider `CC1=NN(c2cccc(Cl)c2)C2(C1)SCC(=O)N2c1nc2ccccc2s1` (configuration not stated), for which the TGI is above 100 µM in the test with BT-549 breast; 84.4 µM with T-47D breast; above 100 µM in the test with HCT-15 colon; above 100 µM with SF-268 CNS; above 100 µM with MCF7 breast; 75.5 µM in the test with NCI-H522 lung. Besides, the TGI turned out to be 38.6 µM in the test with RPMI-8226 leukemia; 44.9 µM with RXF 393 renal; 65.1 µM in the test with PC-3 prostate; 32.5 µM in the test on COLO 205 colon; 39.4 µM in the test with SK-MEL-5 melanoma.

Take `CNc1nc(=O)c(C#N)c(-c2ccc(C)cc2)s1`: the TGI in the test with BT-549 breast, in the test with T-47D breast, in the test with HCT-15 colon, with MCF7 breast, in the test on NCI-H522 lung and in the test with RXF 393 renal was above 100 µM throughout. In addition, the TGI in the test with PC-3 prostate, in the test with COLO 205 colon and in the test with SK-MEL-5 melanoma was above 100 µM in each case.

Regarding `C/C(=N\Nc1ncnc2ccccc12)c1ccccn1`, the TGI in the test with BT-549 breast is 35.5 µM; in the test on T-47D breast it was 20.7 µM; in the test with HCT-15 colon, above 56.8 µM; in the test on SF-268 CNS, 7.2 µM; in the test on MCF7 breast it was 25.1 µM; with NCI-H522 lung, 1.53 µM. In addition, the TGI with RPMI-8226 leukemia was 1.62 µM; in the test with RXF 393 renal, 17.3 µM; with PC-3 prostate, 31.6 µM; in the test with COLO 205 colon, 17.9 µM; in the test with SK-MEL-5 melanoma, 13.2 µM.

As to `CN(C)Cc1cc(C(=O)/C=C/c2c(F)cccc2Cl)cc(CN(C)C)c1O`, the TGI worked out at 21.8 µM in the test with BT-549 breast; 33.4 µM in the test on T-47D breast; 19.1 µM in the test on HCT-15 colon; 23.5 µM in the test on SF-268 CNS; 20.2 µM in the test on MCF7 breast; 49.6 µM with RPMI-8226 leukemia. For the same molecule, the TGI in the test with RXF 393 renal was 12.6 µM; with PC-3 prostate, 29.5 µM; with COLO 205 colon it was 24.8 µM; with SK-MEL-5 melanoma, 29.2 µM.

As for `CCCCCCCCC[C@@H]1C[C@@H]2CCC3C(C(=O)OCCCCNC(=O)OCc4ccccc4)=C(C)NC(=N1)N32` (some centres not stated), the TGI worked out at 12.6 µM in the test on BT-549 breast; 10.6 µM in the test with T-47D breast; 8.06 µM in the test on HCT-15 colon; 6.66 µM with SF-268 CNS; 4.72 µM with MCF7 breast; 6.01 µM in the test with NCI-H522 lung. Besides, the TGI is 4.44 µM with RPMI-8226 leukemia; 7.34 µM in the test on RXF 393 renal; 7.32 µM with PC-3 prostate; 2.97 µM with COLO 205 colon; 2.93 µM in the test on SK-MEL-5 melanoma.

Consider `CCOC(=O)c1[nH]n(-c2ccccc2)c(=O)c1C=NC(=S)C(N)=S`, for which the TGI in the test on BT-549 breast was above 100 µM; in the test with T-47D breast, 41.8 µM; with HCT-15 colon it was above 100 µM; in the test with SF-268 CNS it was above 100 µM; with MCF7 breast, above 100 µM; with NCI-H522 lung, 35.5 µM. The TGI with RXF 393 renal is 65.1 µM; in the test with PC-3 prostate, above 100 µM; in the test on COLO 205 colon it was 68.5 µM; in the test on SK-MEL-5 melanoma, 40.3 µM.

For `CCOc1ccc(C(c2c(O)c3ccccc3oc2=O)c2c(O)c3ccccc3oc2=O)cc1`, the TGI in the test with BT-549 breast, in the test on T-47D breast, in the test with HCT-15 colon, in the test with SF-268 CNS, in the test with MCF7 breast and with NCI-H522 lung was above 100 µM in each case. Further, the TGI in the test with RPMI-8226 leukemia is 93.8 µM; in the test with PC-3 prostate, 84.3 µM; in the test on COLO 205 colon, above 100 µM; in the test with SK-MEL-5 melanoma, above 100 µM.

Regarding `CC(C)(CO)NC(=O)c1cccc(C(=O)NC(C)(C)CO)c1Br`, the TGI with BT-549 breast, in the test with T-47D breast, with HCT-15 colon, in the test on SF-268 CNS, in the test on MCF7 breast and in the test on RPMI-8226 leukemia was above 100 µM throughout. Besides, the TGI with RXF 393 renal, in the test with PC-3 prostate, with COLO 205 colon and with SK-MEL-5 melanoma was above 100 µM each time.

In the case of `CC1(C)CC(=O)C2=C(C1)N(c1ccccc1)C1(O)C=CC(=O)C3=C(O)c4ccccc4C(=O)C321` (configuration not stated), the TGI in the test on BT-549 breast is 67.9 µM; in the test with T-47D breast, above 100 µM; with HCT-15 colon it was above 100 µM; in the test on SF-268 CNS it was 52.1 µM; in the test on MCF7 breast, above 100 µM; in the test with NCI-H522 lung, 45.8 µM. Besides, the TGI in the test on RPMI-8226 leukemia was above 100 µM; with RXF 393 renal, 39.6 µM; in the test with PC-3 prostate it was 63.5 µM; in the test on COLO 205 colon, above 100 µM.

For `CNC(=O)C(NC(=O)[C@H](CC(C)C)NC(=O)[C@@H](S)CCN1C(=O)N(C)C(C)(C)C1=O)C(C)(C)C` (some centres not stated), the TGI with BT-549 breast, in the test on T-47D breast, in the test on HCT-15 colon, in the test on SF-268 CNS, with MCF7 breast and in the test with NCI-H522 lung was above 100 µM throughout. Besides, the TGI in the test with RPMI-8226 leukemia, in the test on RXF 393 renal, in the test on PC-3 prostate and in the test with SK-MEL-5 melanoma was above 100 µM each time.

For the molecule `CC(C)CC(NC(=O)OCc1ccccc1)C(=O)NCCCCC(NC(=O)C(CCCCNC(=O)C(CC(C)C)NC(=O)OCc1ccccc1)NC(=O)C(CCCCNC(=O)C(CC(C)C)NC(=O)OCc1ccccc1)NC(=O)C(CCCCNC(=O)C(CC(C)C)NC(=O)OCc1ccccc1)NC(=O)OC(C)(C)C)C(=O)O` (configuration not stated) (Boc-K([Leu-Cbz])K([Leu-Cbz])K([Leu-Cbz])K([Leu-Cbz])-OH; configuration not given here), the TGI in the test with BT-549 breast, in the test on T-47D breast, in the test on HCT-15 colon, in the test with SF-268 CNS, in the test with MCF7 breast and in the test with NCI-H522 lung was above 25 µM each time. Also, the TGI in the test with RPMI-8226 leukemia, in the test with PC-3 prostate and with SK-MEL-5 melanoma was above 25 µM throughout.
